Values joined by “and” are separate entries in the source; they are usually repeats but may differ in a detail not shown here. Equal entries are not always repeated. Where two headings read alike, the source gives them in different places.
How the values were obtained:
MDA-MB-231 cells = test: Inhibition of proliferation of the MDA-MB-231 cell line by the cryptophycin compounds of formula (I) (14C-thymidine incorporation); format: cell-based; conditions: 14C-thymidine incorporation at 96 h, tested as pure β epoxide or α/β epoxide mixture (structural comment), read-out: IC50 (pM) MDA-MD-231
Protocol: (§1) Evaluation of the Inhibition of Proliferation of the HCT116 and MDA-MB-231 Cell Lines by the Cryptophycin Compounds of Formula (I)
(§2) HCT116 and MDA-MB-231 cells in their exponential growth phase were trypsinized and resuspended in their respective culture medium (DMEM/F12 Gibco #21331, 10% FCS Gibco #10500-056, […] Gibco #25030 for the MDA-MB-231 cells; DMEM Gibco #11960, 10% FCS Gibco #10500-056, 2 mM glutamine Gibco #25030 for the HCT116 cells). The cell suspension was seeded in Cytostar 96-well culture plates (GE Healthcare Europe, # RPNQ0163) in the whole culture medium containing serum at a density of 5000 cells/well. After incubation for 4 h, successive dilutions of the cryptophycin compounds were added to the wells at concentrations decreasing from 10^−7 to 10^−12 M (in triplicate for each concentration). The cells were cultured at 37° C. in an atmosphere containing 5% CO2 in the presence of the cryptophycin compounds for 3 d. On the 4th day, 10 μl of a ^14C-thymidine solution (0.1 μCi/well, Perkin Elmer # NEC56825000) were added to each well. The incorporation of ^14C-thymidine was measured 96 h after the start of the experiment with a microbeta radioactivity counter (Perkin Elmer). The data were expressed in the form of a percentage of survival by determining the ratio between the reduced count obtained with the cells treated with the cryptophycin compound and the count obtained with the cells of the control wells (treated with the culture medium alone).
(§3) The inhibitory activity is given by the concentration which inhibits 50% of the activity.

[1] = 16-membered ring
HCT116 cells = test: Inhibition of proliferation of the HCT116 cell line by the cryptophycin compounds of formula (I) (14C-thymidine incorporation); format: cell-based; conditions: tested as pure β epoxide or α/β epoxide mixture (structural comment)
Protocol: as §1, §2, §3

lung cancer = conditions: two phase II lung cancer trials; cited from earlier work
[2] = Homo sapiens, HCT-116, 14C-thymidine incorporation at 96 h

For `COc1ccc(C[C@H]2NC(=O)/C=C/C[C@@H]([C@H](C)C3OC3c3ccc(CO)cc3)OC(=O)[C@H](C)NC(=O)C(C)(C)CNC2=O)cc1Cl` (stereo partly drawn) [Ex. 15, (3S,10R,16S,E)-10-(3-chloro-4-methoxybenzyl)-16-((S)-1-(3-(4-(hydroxy-methyl)phenyl)oxiran-2-yl)ethyl)-3,6,6-trimethyl-1-oxa-4,8,11-triazacyclohexadec-13-ene-2,5,9,12-tetraone], the IC50 (MDA-MB-231 cells; Homo sapiens, MDA-MB-231) was 511 pM.
Compound “(3S,10R,16S,E)-16-((R,E)-4-(4-(azidomethyl)phenyl)but-3-en-2-yl)-10-(3-chloro-4-methoxybenzyl)-3-isobutyl-6,6-dimethyl-1-oxa-4,8,11-triazacyclohexadec-13-ene-2,5,9,12-tetraone” has a ring closure, isolated yield ([1]; amide bond) of 68%.
In the case of “(3S,10R,16S,E)-16-((S)-1-((2R,3R)-3-(4-(aminomethyl)phenyl)oxiran-2-yl)ethyl)-10-(3-chloro-4-methoxybenzyl)-6-methyl-3-neopentyl-6-(((triethylsilyl)oxy)methyl)-1-oxa-4, 8,11-triazacyclohexadec-13-ene-2,5,9,12-tetraone [Ex. 32]”, the IC50 (MDA-MB-231 cells) is reported as 1780 pM.
With “(3S,10R,16S, E)-10-(3-chloro-4-methoxybenzyl)-16-((R,E)-4-(4-(hydroxymethyl)-phenyl)but-3-en-2-yl)-6,6-dimethyl-3-neopentyl-1-oxa-4,8,11-triazacyclohexadec-13-ene-2,5,9,12-tetraone” the ring closure, isolated yield ([1]; amide bond) was 70%.
With “(3S,10R,16S,E)-10-(3-chloro-4-methoxybenzyl)-6-(hydroxymethyl)-16-((R)-1-((4-methoxybenzyl)oxy)propan-2-yl)-6-methyl-3-neopentyl-1-oxa-4,8,11-triazacyclohexadec-13-ene-2,5,9,12-tetraone” the ring closure, isolated yield ([1]; rcm bond) was 56% and 37%.
In the case of `COc1ccc(C[C@H]2NC(=O)/C=C/C[C@@H]([C@H](C)[C@H]3O[C@@H]3c3ccccc3)OC(=O)[C@H](CC(C)C)OC(=O)C(C)(C)CNC2=O)cc1Cl` [C-52, cryptophycin C-52, reference compound], the IC50 (HCT116 cells; 14C-thymidine incorporation at 96 h) is listed as 76 pM, the IC50 (MDA-MB-231 cells) is listed as 90 pM and the stable disease (lung cancer) is listed as 30-40%.
Work on `COc1ccc(C[C@H]2NC(=O)/C=C/C[C@@H]([C@H](C)[C@H]3O[C@@H]3c3ccc(CN)cc3)OC(=O)[C@H](CC(C)C)NC(=O)C(C)(C)C(C)NC2=O)cc1Cl` (stereo partly drawn) [Ex. 18, (3S,10R,16S,E)-16-((S)-1-((2R,3R)-3-(4-(aminomethyl)phenyl)oxiran-2-yl)ethyl)-10-(3-chloro-4-methoxybenzyl)-3-isobutyl-6,6,7-trimethyl-1-oxa-4,8,11-triazacyclohexadec-13-ene-2,5,9,12-tetraone] yielded an IC50 (HCT116 cells; [2]) of 179 pM and an IC50 (MDA-MB-231 cells; Homo sapiens, MDA-MB-231) of 228 pM.
“(3S,10R,16S, E)-16-((R,E)-4-(4-(azidomethyl)phenyl)but-3-en-2-yl)-10-(3-chloro-4-methoxybenzyl)-3-isobutyl-6,6,7-trimethyl-1-oxa-4,8,11-triazacyclohexadec-13-ene-2,5,9,12-tetraone” showed a ring closure, isolated yield ([1]; amide bond) of 53%.
For `COc1ccc(C[C@H]2NC(=O)/C=C/C[C@@H]([C@H](C)C3OC3c3ccc(CO)cc3)OC(=O)[C@H](C(C)C)NC(=O)C(C)(C)CNC2=O)cc1Cl` (stereo partly drawn) [Ex. 16, (3S,10R,16S,E)-10-(3-chloro-4-methoxybenzyl)-16-((S)-1-(3-(4-(hydroxy-methyl)phenyl)oxiran-2-yl)ethyl)-6,6-dimethyl-3-isopropyl-1-oxa-4,8,11-triazacyclohexadec-13-ene-2,5,9,12-tetraone], the IC50 (MDA-MB-231 cells; Homo sapiens, MDA-MB-231) was 2820 pM.
In the case of `COc1ccc(C[C@H]2NC(=O)/C=C/C[C@@H]([C@H](C)[C@H]3O[C@@H]3c3ccc(CO)cc3)OC(=O)[C@H](CC(C)(C)C)NC(=O)C(C)(C)CNC2=O)cc1Cl` [Ex. 4, (3S,10R,16S,E)-10-(3-chloro-4-methoxybenzyl)-16-((S)-1-((2R,3R)-3-(4-(hydroxy-methyl)phenyl)oxiran-2-yl)ethyl)-6,6-dimethyl-3-neopentyl-1-oxa-4,8,11-triazacyclohexadec-13-ene-2,5,9,12-tetraone], the IC50 (HCT116 cells; [2]) is reported as 51 pM and the IC50 (MDA-MB-231 cells; Homo sapiens, MDA-MB-231) is reported as 82 pM.
For “(3S,10R,16S, E)-10-(3-chloro-4-methoxybenzyl)-16-((R,E)-4-(4-(hydroxymethyl)-phenyl)but-3-en-2-yl)-6,6,7-trimethyl-3-neopentyl-1-oxa-4,8,11-triazacyclohexadec-13-ene-2,5,9,12-tetraone”, the ring closure, isolated yield ([1]; amide bond) was 54%.
Work on `COc1ccc(C[C@H]2NC(=O)/C=C/C[C@@H]([C@H](C)[C@H]3O[C@@H]3c3ccc(CO)cc3)OC(=O)[C@H](CC(C)(C)C)NC(=O)C(C)(C)C(C)NC2=O)cc1Cl` (stereo partly drawn) [Ex. 11, (3S,10R,16S,E)-10-(3-chloro-4-methoxybenzyl)-16-((S)-1-((2R,3R)-3-(4-(hydroxymethyl)phenyl)oxiran-2-yl)ethyl)-6,6,7-trimethyl-3-neopentyl-1-oxa-4,8,11-triazacyclohexadec-13-ene-2,5,9,12-tetraone] yielded an IC50 (MDA-MB-231 cells; Homo sapiens, MDA-MB-231) of 102 pM.
Compound `COc1ccc(C[C@H]2NC(=O)/C=C/C[C@@H]([C@H](C)[C@H]3O[C@@H]3c3ccc(CN)cc3)OC(=O)[C@H](CC(C)C)NC(=O)C(C)(C)CNC2=O)cc1Cl` [Ex. 1, (3S,10R,16S,E)-16-((S)-1-((2R,3R)-3-(4-(aminomethyl)phenyl)oxiran-2-yl)ethyl)-10-(3-chloro-4-methoxybenzyl)-3-isobutyl-6,6-dimethyl-1-oxa-4,8,11-triazacyclohexadec-13-ene-2,5,9,12-tetraone] has an IC50 (HCT116 cells; [2]) of 163 pM and an IC50 (MDA-MB-231 cells; Homo sapiens, MDA-MB-231) of 250 pM.
“(3S,7S,10R,16S, E)-10-(3-chloro-4-methoxybenzyl)-16-((R)-1-((4-methoxy-benzyl)oxy)propan-2-yl)-6,6,7-trimethyl-3-neopentyl-1-oxa-4,8,11-triazacyclohexadec-13-ene-2,5,9,12-tetraone” gave a ring closure, isolated yield ([1]; rcm bond) of 61%.
For `COc1ccc(C[C@H]2NC(=O)/C=C/C[C@@H]([C@H](C)C3OC3c3ccc(CN)cc3)OC(=O)[C@H](CC(C)C)NC(=O)C(C)(C)C(C)NC2=O)cc1Cl` (stereo partly drawn) [Ex. 8, (3S,10R,16S,E)-16-((S)-1-(3-(4-(aminomethyl)phenyl)oxiran-2-yl)ethyl)-10-(3-chloro-4-methoxybenzyl)-3-isobutyl-6,6,7-trimethyl-1-oxa-4,8,11-triazacyclohexadec-13-ene-2,5,9,12-tetraone], the IC50 (HCT116 cells; [2]) was 518 pM and the IC50 (MDA-MB-231 cells; Homo sapiens, MDA-MB-231) was 564 pM.
Work on `COc1ccc(C[C@H]2NC(=O)/C=C/C[C@@H]([C@H](C)C3OC3c3ccc(CO)cc3)OC(=O)[C@H](C(C)(C)C)NC(=O)C(C)(C)CNC2=O)cc1Cl` (stereo partly drawn) [Ex. 17, (3S,10R,16S,E)-10-(3-chloro-4-methoxybenzyl)-16-((S)-1-(3-(4-(hydroxy-methyl)phenyl)oxiran-2-yl)ethyl)-3-tert-butyl-6,6-dimethyl-1-oxa-4,8,11-triazacyclohexadec-13-ene-2,5,9,12-tetraone] yielded an IC50 (MDA-MB-231 cells; Homo sapiens, MDA-MB-231) of 856 pM.

Source: patent US10941139B2, “Cryptophycin compounds and conjugates, their preparation and their therapeutic use” (priority 2015, dated 2021)
